Results: patent US4820707A, “2,6-piperazinedione compounds” (ADIR Et Cie, priority 1986, dated 1989)
Counter-ions that a name gives are not always drawn.

Assays:
Assay type in all cases: in vivo
[1] = Anxiolytic activity by the "staircase" test; set-up: key to % variation in the steps climbed: NS: not significant; settings: rats
Excerpt: The anxiolytic activity of the compounds of the invention was investigated in rats according to the method described by Thiebot, Soubrie and Boissier in J. Pharmacol. 1976, 7, (1), p. 87-102. In this test, behavior involving rearing movements is associated with a state of distress of the animal. The number of steps climbed represents the normal exploratory behavior of the rat introduced into the enclosure. Normally, an efficacious anxiolytic compound should decrease, during the test which lasts 3 minutes, the number of rearing movements without modifying the number of steps climbed, or on the contrary should increase this latter parameter.

[2] = Anxiolytic activity by the four-plates test; settings: mice; for change in vivo at 5 mg/kg: 5 mg.kg^-1; for % increase in the responses: p.o.
Protocol: The anxiolytic activity of the compounds of the general formula I was investigated in mice according to the method of Aron Simon Larousse and Boissier described in Neuropharmacology (1971) 10 p. 459-469). After treatment of the animals by means of different doses of the compounds of the invention administered intraperitoneally or orally, the increase in the percentage of transitions during the exploration of the base of the test cage, in the presence of electric shocks, was assessed.

[3] = Inhibition of isolation-induced aggression in mice; settings: Mus musculus, ip, read-out: Inhibitory ED50 (effective dose inhibiting 50% of the aggressive animals)
Excerpt: The compounds of general formula I inhibit the attacking behavior of mice rendered aggressive by isolation according to the method described by Yen, Stanger and Millman in Arch. Int. Pharmacodyn. 1959, 123, p. 179-185.

[4] = Inhibition of the active conditioned avoidance response in rats; settings: i.p.
Excerpt: The results obtained with the compounds of general formula I during the various experiments employing the method described by Courvoisier et al. in Arch. Int. Pharmacodyn., 1953, 92, p. 305-361 and by Janssen et al. in Arzneim, Forsch, 1965, 15, p.

[5] = Inhibition of aggression in isolated and bulbectomized rats
Protocol: The inhibition of aggression was assessed according to the method described by Vergnes and Karli in C.R. Soc. Biol. 1963, 157, p. 1061. The effect on the aggression is assessed in terms of the percentage of animals which became non-killers after treatment.

[6] = Anxiolytic activity by MacMillan's conflict test; settings: rats, i.p., vs physiological saline; for % variation in the unpunished responses: NS (not significant); for % variation in the punished responses: S (significant)
Excerpt: In these conditioning experiments which operate in the presence of a food reward, performed in rats according to the method described by MacMillan in Fed. Proceedings, 1975, 34, (9), p. 1870-1879, two parameters in the animal's behavioral responses are considered. The first parameter is the variation in the level of punished responses, in the presence of an electric shock, under the influence of the treatment in comparison with the level of punished responses under the influence of physiological saline. The second parameter is the variation in the level of unpunished responses, without an electric shock, under the influence of the same treatment, in comparison with the level of unpunished responses when physiological saline is administered. A specific anxiolytic effect is established when, after the administration of a substance, the level of only the punished responses is increased.

[7] = Mus musculus, ip, i.p., read-out: % increase in the responses (transitions)
[8] = Mus musculus, ip, i.p., 25 mg.kg^-1, read-out: % increase in the responses (transitions)
[9] = Mus musculus, ip, i.p., 10 mg.kg^-1, read-out: % increase in the responses (transitions)

In the case of O=C1CN(Cc2ccccc2Cl)CC(=O)N1CCCN1CCN(c2cccc(C(F)(F)F)c2)CC1 [Example 4, 4-(2-Chlorobenzyl)-1-{3-[1-(3-trifluoromethylphenyl)-4-piperazinyl]propyl}-2,6-piperazinedione dimandelate], the “% variation in the rearing movements” value ([1]; i.p., 10 mg.kg^-1) is reported as -47%, the “% variation in the steps climbed” value ([1]; i.p., 10 mg.kg^-1) is reported as “NS” and the change in vivo at 5 mg/kg [2, 7] is reported as 37%. For the same compound, the change in vivo at 25 mg/kg [2, 8] was 67%, the “% increase in the responses” value ([2]; 25 mg.kg^-1) was 35% and the “% increase in the responses” value ([2]; 50 mg.kg^-1) was 58%.

In the case of Cl.Cl.Cl.O=C1CN(Cc2ccccc2)CC(=O)N1CCCCN1CCN(c2ncccn2)CC1 [Example 5, 4-Benzyl-1-{4-[1-(2-pyrimidinyl)-4-piperazinyl]butyl}-2,6-piperazinedione trihydrochloride], the “% variation in the rearing movements” value ([1]; i.p., 1,25 mg.kg^-1) is reported as -40% and the “% variation in the steps climbed” value ([1]; i.p., 1,25 mg.kg^-1) is reported as “NS”.

COc1ccccc1CN1CC(=O)N(CCCCN2CCN(c3cccc(C(F)(F)F)c3)CC2)C(=O)C1.Cl.Cl [Example 6, 4-(2-Methoxybenzyl)-1-{4-[1-(3-trifluoromethylphenyl)-4-piperazinyl]butyl}-2,6-piperazinedione dihydrochloride] showed an ED50 [3] of 4.74 mg/kg and a change in vivo at 25 mg/kg [2, 8] of 37%.

In the case of Cl.Cl.Cl.O=C1CN(Cc2ccccn2)CC(=O)N1CCCN1CCN(c2ccc(F)cc2)CC1 [Example 7, 4-(2-Pyridylmethyl)-1-{3-[1-(4-fluorophenyl)-4-piperazinyl]propyl}-2,6-piperazinedione trihydrochloride], the “% ICAR (percentage inhibition of the conditioned avoidance response)” value ([4]; 10 mg.kg^-1) is reported as 30%, the “% ICAR (percentage inhibition of the conditioned avoidance response)” value ([4]; 15 mg.kg^-1) is reported as 48% and the “% ICAR (percentage inhibition of the conditioned avoidance response)” value ([4]; 20 mg.kg^-1) is reported as 79%. For the same compound, the “% of non-killer animals” value ([5]; i.p., 25 mg.kg^-1) was 67%.

For Cl.Cl.O=C1CN(Cc2ccccc2)CC(=O)N1CCN1CCN(c2cccc(C(F)(F)F)c2)CC1 [Example 10, 4-Benzyl-1-{2-[1-(3-trifluoromethylphenyl)-4-piperazinyl]ethyl}-2,6-piperazinedione dihydrochloride], the “% of non-killer animals” value ([5]; i.p., 25 mg.kg^-1) was 66%, the change in vivo at 25 mg/kg [2, 8] was 85% and the “% variation in the unpunished responses” value ([6]; 5 mg.kg^-1) was “+18%”. For the same compound, the “% variation in the punished responses” value ([6]; 5 mg.kg^-1) was “+67%”.

In the case of COc1ccccc1CN1CC(=O)N(CCCN2CCN(c3ccc(C)cc3)CC2)C(=O)C1 [Example 14, 4-(2-Methoxybenzyl)-1-{3-[1-(4-methylphenyl)-4-piperazinyl]propyl}-2,6-piperazinedione], the “% variation in the unpunished responses” value ([6]; 5 mg.kg^-1) is reported as “+14%” and the “% variation in the punished responses” value ([6]; 5 mg.kg^-1) is reported as “+48%”.

For COc1ccccc1CN1CC(=O)N(CCCN2CCN(c3cccc(C(F)(F)F)c3)CC2)C(=O)C1.Cl.Cl [Example 15, 4-(2-Methoxybenzyl)-1-{3-[1-(3-trifluoromethylphenyl)-4-piperazinyl]propyl}-2,6-piperazinedione dihydrochloride], the “% variation in the rearing movements” value ([1]; i.p., 10 mg.kg^-1) was -43%, the “% variation in the steps climbed” value ([1]; i.p., 10 mg.kg^-1) was “NS” and the “% variation in the rearing movements” value ([1]; i.p., 20 mg.kg^-1) was -64%. For the same compound, the “% variation in the steps climbed” value ([1]; i.p., 20 mg.kg^-1) was “NS”, the “% of non-killer animals” value ([5]; i.p., 25 mg.kg^-1) was 64% and the change in vivo at 20 mg/kg ([2]; Mus musculus, ip, i.p., 20 mg.kg^-1, read-out: % increase in the responses (transitions)) was 52%. For the same compound, the “% increase in the responses” value ([2]; 10 mg.kg^-1) was 61%, the “% increase in the responses” value ([2]; 50 mg.kg^-1) was 90% and the “% variation in the unpunished responses” value ([6]; 10 mg.kg^-1) was “+37%”. The “% variation in the punished responses” value ([6]; 10 mg.kg^-1) was “+41%”.

For COc1ccccc1CN1CC(=O)N(CCN2CCN(c3cccc(C(F)(F)F)c3)CC2)C(=O)C1 [Example 16, 4-(2-Methoxybenzyl)-1-{2-[1-(3-trifluoromethylphenyl)-4-piperazinyl]ethyl}-2,6-piperazinedione trihydrochloride], the change in vivo at 10 mg/kg [2, 9] was 41%.

Compound Cl.Cl.Cl.O=C1CN(Cc2ccccn2)CC(=O)N1CCCN1CCN(c2ccccc2Cl)CC1 [Example 17, 4-(2-Pyridylmethyl)-1-{3-[1-(2-chlorophenyl)-4-piperazinyl]propyl}-2,6-piperazinedione trihydrochloride] has an ED50 [3] of 6.11 mg/kg.

For COc1ccccc1N1CCN(CCCN2C(=O)CN(Cc3ccccn3)CC2=O)CC1.Cl.Cl.Cl.Cl [Example 18, 4-(2-Pyridylmethyl)-1-{3-[1-(2-methoxyphenyl)-4-piperazinyl]propyl}-2,6-piperazinedione tetrahydrochloride], the “% ICAR (percentage inhibition of the conditioned avoidance response)” value ([4]; 10 mg.kg^-1) was 18%, the “% ICAR (percentage inhibition of the conditioned avoidance response)” value ([4]; 15 mg.kg^-1) was 35% and the “% ICAR (percentage inhibition of the conditioned avoidance response)” value ([4]; dose not printed in this line) was 56%.

With Cc1ccc(N2CCN(CCCN3C(=O)CN(Cc4ccccn4)CC3=O)CC2)cc1.Cl.Cl.Cl [Example 20, 4-(2-Pyridylmethyl)-1-{3-[1-(4-methylphenyl)-4-piperazinyl]propyl}-2,6-piperazinedione trihydrochloride] the “% variation in the rearing movements” value ([1]; i.p., 2,5 mg.kg^-1) was -43% and the “% variation in the steps climbed” value ([1]; i.p., 2,5 mg.kg^-1) was “NS”.

With Cl.Cl.Cl.O=C1CN(Cc2cccnc2)CC(=O)N1CCCN1CCN(c2cccc(Cl)c2)CC1 [Example 22, 4-(3-Pyridylmethyl)-1-{3-[1-(3-chlorophenyl)-4-piperazinyl]propyl}-2,6-piperazinedione trihydrochloride] the “% of non-killer animals” value ([5]; i.p., 12,5 mg.kg^-1) was 83% and the change in vivo at 10 mg/kg [2, 9] was 44%.

In the case of Cc1ccccc1N1CCN(CCCN2C(=O)CN(C(c3ccccc3)c3ccccc3)CC2=O)CC1 [Example 23, 4-Diphenylmethyl-1-{3-[1-(2-methylphenyl)-4-piperazinyl]propyl}-2,6-piperazinedione trimethanesulfonate], the change in vivo at 10 mg/kg [2, 9] is reported as 47% and the change in vivo at 25 mg/kg [2, 8] is reported as 77%.

Work on O=C1CN(C(c2ccccc2)c2ccccc2)CC(=O)N1CCCN1CCN(c2cccc(C(F)(F)F)c2)CC1 [Example 24, 4-Diphenylmethyl-1-{3-[1-(3-trifluoromethylphenyl)-4-piperazinyl]propyl}-2,6-piperazinedione dimandelate] yielded a change in vivo at 25 mg/kg [2, 8] of 62%.

In the case of O=C1CN(C(c2ccccc2)c2ccc(Cl)cc2)CC(=O)N1CCCN1CCN(c2cccc(C(F)(F)F)c2)CC1 (stereo not shown) [Example 26, 4-(4-Chlorodiphenylmethyl)-1-{3-[1-(3-trifluoromethylphenyl)-4-piperazinyl]propyl}-2,6-piperazinedione dicitrate], the “% increase in the responses” value ([2]; 25 mg.kg^-1) is reported as 69%.

With O=C1CN(C2CCCCC2)CC(=O)N1CCCN1CCN(c2cccc(C(F)(F)F)c2)CC1 [Example 27, 4-Cyclohexyl-1-{3-[1-(3-trilfuoromethylphenyl)-4-piperazinyl]propyl}-2,6-piperazinedione dihydrochloride] the “% variation in the rearing movements” value ([1]; i.p., 2,5 mg.kg^-1) was -41%, the “% variation in the steps climbed” value ([1]; i.p., 2,5 mg.kg^-1) was “NS” and the change in vivo at 25 mg/kg [2, 8] was 73%.

With O=C1CN(CCCN2CCN(c3cccc(C(F)(F)F)c3)CC2)CC(=O)N1Cc1ccccc1 [Example 28, 1-Benzyl-4-{3-[1-(3-trifluoromethylphenyl)-4-piperazinyl]propyl}-2,6-piperazinedione diphosphate] the change in vivo at 25 mg/kg [2, 8] was 82%.

For COc1cccc(CN2C(=O)CN(CCCN3CCN(c4cccc(C(F)(F)F)c4)CC3)CC2=O)c1 [Example 29, 1-(3-Methoxybenzyl)-4-{3-[1-(3-trifluoromethylphenyl)-4-piperazinyl]propyl}-2,6-piperazinedione diphosphate], the change in vivo at 25 mg/kg [2, 8] was 49%.

With O=C1CN(Cc2ccccc2F)CC(=O)N1CCCN1CCN(c2ccc(C(F)(F)F)cn2)CC1 [Example 30, 4-(2-Fluorobenzyl)-1-{3-[1-(5-trifluoromethyl-2-pyridinyl)-4-piperazinyl]propyl}-2,6-piperazinedione dihydrochloride] the change in vivo at 5 mg/kg [2, 7] was 40%.
